Literature values, collected in PMC8177775 (Cancer Science, 2021).

Legend:
[1] = system: patients with solid tumors; settings: cited from earlier work
[2] = system: patients with wild‐type p53 and RAS or RAF mutations and locally advanced or metastatic solid tumors; settings: 26 patients; cited from earlier work
[3] = system: patients with acute myeloid leukemia; settings: n = 36; cited from earlier work

CCOc1cc(C(C)(C)C)ccc1C1=N[C@@](C)(c2ccc(Cl)cc2)[C@@](C)(c2ccc(Cl)cc2)N1C(=O)N1CCN(CCCS(C)(=O)=O)CC1 [RG7112]
Grade ≥ 3 lymphocyte count decreased ([1]; n = 76): 11 patients | Grade ≥ 3 platelet count decreased ([1]; n = 76): two patients | Tolerability ([1]; patients (n = 76) with solid tumors): generally well tolerated

CC(C)(C)C[C@@H]1N[C@@H](C(=O)N[C@H]2CC[C@H](O)CC2)[C@H](c2cccc(Cl)c2F)[C@]12C(=O)Nc1cc(Cl)ccc12 [SAR405838]
Most common reported AEs [2]: diarrhea, blood creatine phosphokinase increased, nausea, and vomiting

CC(C)[C@@H](CS(=O)(=O)C(C)C)N1C(=O)[C@@](C)(CC(=O)O)C[C@H](c2cccc(Cl)c2)[C@H]1c1ccc(Cl)cc1 [AMG 232]
Common treatment-related AEs [3]: nausea, diarrhea, and vomiting | MTD [3]: not reached
